# Data taken from US6423714B1, “Cyclohexene derivatives useful as antagonists of the motilin receptor” (Ortho McNeil-Pharmaceutical, Inc.., priority 2000, dated 2002).
# Biological target: T1, motilin receptors located on the colon of mature rabbits (Oryctolagus cuniculus, UniProt G1T803)
# T1 construct: The muscle tissues were homogenized in 10 volumes of buffer; from tissue; host or cells: rabbit colon smooth muscle, crude membrane homogenate
# Assay: Competition with radiolabeled (I125) porcine motilin for motilin receptors in rabbit colon membranes
# Format: binding
# Settings: @ 50 nM; I125 motilin (porcine) 25-40 pM; rabbit colon smooth muscle membranes; 30 min at 30° C.
# Procedure: The compounds of the invention were tested for their ability to compete with radiolabeled motilin (porcine) for the motilin receptors located on the colon of mature rabbits. The colon from mature New Zealand rabbits was removed, dissected free from the mucosa and serosa layers, and diced into small pieces. The muscle tissues were homogenized in 10 volumes of buffer (50 mM Tris-Cl, 10 mM MgCl2, 0.1 mg/mL bactracin, and 0.25 mM Peflabloc, pH 7.5) in a Polytron (29,000 rpm, 4×15 seconds). The homogenate was centrifuged at 1000×g for 15 min. and the supernatant discarded. The pellet was washed twice before being suspended in homogenizing buffer. This crude homogenate was then passed first through a 19 gauge needle then a 23 gauge needle to further suspend the material and stored at −80° C. […] The pellet was counted in the gamma counter to determine the percentage of […] motilin and thereby the percent inhibition of the test compound.
# % inhibition was determined for some compounds by standard techniques: […]
# T1 sequence (G1T803 1-400): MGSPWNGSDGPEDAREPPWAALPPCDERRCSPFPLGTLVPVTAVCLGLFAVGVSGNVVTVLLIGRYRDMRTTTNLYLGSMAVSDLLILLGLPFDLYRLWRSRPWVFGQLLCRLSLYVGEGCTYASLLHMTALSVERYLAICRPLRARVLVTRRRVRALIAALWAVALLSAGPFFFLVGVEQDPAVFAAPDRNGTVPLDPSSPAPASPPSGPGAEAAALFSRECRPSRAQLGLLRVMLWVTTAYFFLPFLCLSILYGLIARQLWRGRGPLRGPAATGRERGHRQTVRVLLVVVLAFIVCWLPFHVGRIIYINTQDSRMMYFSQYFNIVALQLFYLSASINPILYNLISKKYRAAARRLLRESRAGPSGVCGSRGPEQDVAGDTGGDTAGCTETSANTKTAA
compound,measurement,value
3-Benzyl-3-trichloroacetamido-1-N[(3-(2-morpholinoethoxy)phenyl)amino]methylcyclohexene [Example 7],% inhibition,59%
"O=C(Nc1ccccc1)N(CC1=CC(Cc2ccccc2)(NC(=O)C(Cl)(Cl)Cl)CCC1)c1cccc(OCCN2CCOCC2)c1 (centres unmarked) [Example 6, 3-Benzyl-3-trichloroacetamido-1-(N-phenylaminocarbonyl)-N-[(3-(2-morpholinoethoxy)phenyl)amino]methylcyclohexene]",% inhibition,62%
